# In ChEMBL document CHEMBL1201862, “PubChem BioAssay data set” (2004):
# The source made the active and inactive calls.
# How the values were obtained:
# [1] = molecular target: T1, Microphthalmia-associated transcription factor (Homo sapiens, UniProt O75030); test: reducers of TRPM1 reporter luminescence, concentration series – cell-based, SK-MEL-5, cherry-picked, set 3, MITF inhibitor project, dose response (AID 493073); format: functional;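 also: SK-MEL-5 melanoma cells with luciferase driven by the MITF target TRPM1 promoter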
# T1 sequence (O75030 whole entry): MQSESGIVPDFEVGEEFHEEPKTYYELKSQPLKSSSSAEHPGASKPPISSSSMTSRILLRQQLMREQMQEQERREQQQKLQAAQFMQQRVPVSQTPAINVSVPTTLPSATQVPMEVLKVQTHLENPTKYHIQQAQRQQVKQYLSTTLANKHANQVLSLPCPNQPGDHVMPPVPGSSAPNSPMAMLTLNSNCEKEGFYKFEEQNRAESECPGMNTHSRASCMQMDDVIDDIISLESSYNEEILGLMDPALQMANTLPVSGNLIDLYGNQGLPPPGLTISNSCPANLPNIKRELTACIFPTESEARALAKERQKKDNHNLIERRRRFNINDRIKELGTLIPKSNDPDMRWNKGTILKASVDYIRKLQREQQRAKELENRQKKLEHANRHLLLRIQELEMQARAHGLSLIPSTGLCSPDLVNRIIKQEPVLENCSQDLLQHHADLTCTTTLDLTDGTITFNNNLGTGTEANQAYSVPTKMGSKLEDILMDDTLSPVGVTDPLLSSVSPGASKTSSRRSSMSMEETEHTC
# Protein RecA = molecular target: T2, Protein RecA (Mycobacterium tuberculosis, UniProt P9WHJ3); test: Fluorescence Cell-Free Homogeneous Dose Retest to Identify Inhibitors of RecA-Intein Splicing Activity. [Related pubchem assays (depositor defined):AID2097, AID2223, AID489010, AID492950]; format: functional
# T2 sequence (P9WHJ3 whole entry): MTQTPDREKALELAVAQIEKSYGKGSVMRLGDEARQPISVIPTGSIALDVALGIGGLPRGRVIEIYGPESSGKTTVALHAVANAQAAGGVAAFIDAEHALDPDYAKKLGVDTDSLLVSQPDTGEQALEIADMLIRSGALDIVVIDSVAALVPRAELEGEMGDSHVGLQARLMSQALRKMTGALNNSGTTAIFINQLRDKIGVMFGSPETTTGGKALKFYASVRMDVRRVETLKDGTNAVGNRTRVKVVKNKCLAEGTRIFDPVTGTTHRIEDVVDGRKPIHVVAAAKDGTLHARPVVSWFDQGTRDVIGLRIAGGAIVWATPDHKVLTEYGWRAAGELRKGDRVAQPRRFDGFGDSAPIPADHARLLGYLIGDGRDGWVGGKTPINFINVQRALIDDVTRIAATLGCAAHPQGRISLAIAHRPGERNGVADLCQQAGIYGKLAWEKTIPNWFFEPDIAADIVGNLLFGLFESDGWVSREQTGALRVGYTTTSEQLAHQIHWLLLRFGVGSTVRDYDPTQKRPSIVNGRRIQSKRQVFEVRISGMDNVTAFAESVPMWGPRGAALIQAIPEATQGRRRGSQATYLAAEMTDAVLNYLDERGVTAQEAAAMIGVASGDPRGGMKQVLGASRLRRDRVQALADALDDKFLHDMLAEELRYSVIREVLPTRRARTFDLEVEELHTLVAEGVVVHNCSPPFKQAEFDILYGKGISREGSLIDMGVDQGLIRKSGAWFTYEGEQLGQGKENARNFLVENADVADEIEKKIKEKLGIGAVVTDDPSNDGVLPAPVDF
# [2] = molecular target: T3, Replicative DNA helicase DnaB (Mycobacterium tuberculosis, UniProt P9WMR3); test: DnaB intein splicing inhibitors, dose response, biochemical, cell-free fluorescence (AID 449749); format: functional
# T3 sequence (P9WMR3 whole entry): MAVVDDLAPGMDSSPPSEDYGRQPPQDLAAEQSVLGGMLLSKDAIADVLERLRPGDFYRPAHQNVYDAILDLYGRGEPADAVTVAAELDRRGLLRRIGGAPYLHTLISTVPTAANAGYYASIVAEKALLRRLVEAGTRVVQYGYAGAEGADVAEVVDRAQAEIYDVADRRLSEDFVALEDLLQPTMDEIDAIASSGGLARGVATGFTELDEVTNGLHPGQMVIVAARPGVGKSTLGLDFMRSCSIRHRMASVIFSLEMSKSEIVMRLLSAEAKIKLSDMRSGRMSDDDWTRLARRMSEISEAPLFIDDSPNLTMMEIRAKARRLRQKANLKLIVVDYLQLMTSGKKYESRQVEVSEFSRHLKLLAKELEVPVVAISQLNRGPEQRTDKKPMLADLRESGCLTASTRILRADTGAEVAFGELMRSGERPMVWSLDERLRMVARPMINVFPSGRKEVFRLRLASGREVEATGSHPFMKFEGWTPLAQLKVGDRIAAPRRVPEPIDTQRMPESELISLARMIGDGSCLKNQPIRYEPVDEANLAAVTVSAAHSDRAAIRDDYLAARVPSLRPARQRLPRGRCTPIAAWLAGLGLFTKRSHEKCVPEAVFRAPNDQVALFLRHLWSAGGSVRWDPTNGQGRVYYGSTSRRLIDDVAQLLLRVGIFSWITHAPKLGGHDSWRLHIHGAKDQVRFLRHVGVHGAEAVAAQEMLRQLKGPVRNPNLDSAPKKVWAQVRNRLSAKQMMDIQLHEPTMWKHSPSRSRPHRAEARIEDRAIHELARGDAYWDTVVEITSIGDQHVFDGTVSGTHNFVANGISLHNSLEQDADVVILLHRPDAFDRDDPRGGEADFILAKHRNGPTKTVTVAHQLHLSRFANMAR
# [3] = microbe, parasite or virus in culture; format: functional; details: Mycobacterium tuberculosis
# [4] = intracellular Trypanosoma cruzi inhibitors in host cells – cell-based, plate reader, cherry-pick samples, set 3, dose response (AID 651818); format: functional;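 also: compounds incubated with infected cells for about four days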
# [5] = test system: Streptococcus sp. 'group A'; test: Streptococcus pyogenes SK(-)GAS viability under kanamycin – luminescence, BacTiterGlo, confirmation, counter-screen for streptokinase expression inhibitor project, dose response (AID 1900); format: functional, organism-based
# [6] = THP-1 cell cytotoxicity, dose response, cytotoxicity control for non-replicating M. tuberculosis project (AID 489025); format: functional
# Streptokinase A = molecular target: T4, Streptokinase A (Streptococcus pyogenes serotype M1, UniProt P10520); test: viability-normalized secreted streptokinase activity reduction – plasminogen activation absorbance, OD405, dose response (AID 1914); format: functional, Streptococcus pyogenes M1 GAS;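 also: secreted streptokinase activity via plasminogen activation per viability signal from cell pellet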
# T4 sequence (P10520 whole entry): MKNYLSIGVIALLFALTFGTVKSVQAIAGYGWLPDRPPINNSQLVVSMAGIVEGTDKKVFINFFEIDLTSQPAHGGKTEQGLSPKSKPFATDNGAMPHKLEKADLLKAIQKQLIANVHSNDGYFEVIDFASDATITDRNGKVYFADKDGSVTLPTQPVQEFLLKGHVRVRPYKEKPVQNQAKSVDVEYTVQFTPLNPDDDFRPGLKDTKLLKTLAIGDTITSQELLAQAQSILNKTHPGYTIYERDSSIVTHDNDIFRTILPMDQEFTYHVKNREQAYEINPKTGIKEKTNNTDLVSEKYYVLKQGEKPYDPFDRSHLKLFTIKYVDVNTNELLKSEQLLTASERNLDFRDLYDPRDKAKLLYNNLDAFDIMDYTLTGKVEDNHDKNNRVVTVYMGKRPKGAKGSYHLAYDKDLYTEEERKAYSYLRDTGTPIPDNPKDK
# cells = format: functional
# [7] = Vero E6 cell cytotoxicity, dose response, cytotoxicity control for non-replicating M. tuberculosis project, secondary assay (AID 492998); format: functional, VeroE6; details: Vero C1008
# Streptococcus = test: GAS UMAA2166 growth inhibition – luminescence, BacTiterGlo, counter-screen for streptokinase expression inhibitor project, dose response (AID 1915); format: functional, organism-based;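 also: potency for reduction of bacterial viability or growth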
# [8] = molecular target: Disintegrin and metalloproteinase domain-containing protein 17 (Homo sapiens, UniProt P78536); test: inhibition of ADAM17 substrate cleavage – biochemical, quenched FRET substrate, counter-screen for ADAM10 exosite inhibitor project, dose response (AID 743253)
# Chain of Disintegrin and metalloproteinase domain-containing protein 17 (P78536 whole entry, the tested form may be a part): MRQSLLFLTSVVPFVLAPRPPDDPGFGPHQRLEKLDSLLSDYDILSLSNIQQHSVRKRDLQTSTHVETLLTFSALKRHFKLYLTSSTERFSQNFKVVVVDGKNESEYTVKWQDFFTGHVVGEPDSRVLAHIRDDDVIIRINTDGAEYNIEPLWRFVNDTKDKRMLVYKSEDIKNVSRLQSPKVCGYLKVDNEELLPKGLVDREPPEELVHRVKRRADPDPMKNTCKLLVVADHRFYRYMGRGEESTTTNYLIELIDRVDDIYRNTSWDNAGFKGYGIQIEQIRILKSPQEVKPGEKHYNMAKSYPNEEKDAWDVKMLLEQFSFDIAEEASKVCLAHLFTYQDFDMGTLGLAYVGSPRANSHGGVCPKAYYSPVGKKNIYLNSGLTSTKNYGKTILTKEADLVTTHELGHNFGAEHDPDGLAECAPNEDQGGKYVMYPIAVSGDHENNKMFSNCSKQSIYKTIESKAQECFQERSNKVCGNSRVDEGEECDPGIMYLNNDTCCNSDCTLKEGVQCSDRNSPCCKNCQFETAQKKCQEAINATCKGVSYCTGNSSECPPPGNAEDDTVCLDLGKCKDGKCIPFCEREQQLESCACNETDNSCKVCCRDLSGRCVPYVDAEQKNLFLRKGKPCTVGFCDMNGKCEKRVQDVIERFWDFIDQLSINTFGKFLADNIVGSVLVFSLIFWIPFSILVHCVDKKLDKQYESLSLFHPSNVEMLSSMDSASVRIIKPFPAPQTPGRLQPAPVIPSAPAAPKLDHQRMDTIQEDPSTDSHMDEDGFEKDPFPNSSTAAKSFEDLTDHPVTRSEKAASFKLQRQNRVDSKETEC
# [9] = molecular target: T5, Calpain-2 catalytic subunit (Sus scrofa, UniProt P43367); test: m-calpain protease blockers, concentration series – biochemical, fluorogenic peptide substrate, dose response (AID 1420); format: functional
# T5 sequence (P43367 whole entry): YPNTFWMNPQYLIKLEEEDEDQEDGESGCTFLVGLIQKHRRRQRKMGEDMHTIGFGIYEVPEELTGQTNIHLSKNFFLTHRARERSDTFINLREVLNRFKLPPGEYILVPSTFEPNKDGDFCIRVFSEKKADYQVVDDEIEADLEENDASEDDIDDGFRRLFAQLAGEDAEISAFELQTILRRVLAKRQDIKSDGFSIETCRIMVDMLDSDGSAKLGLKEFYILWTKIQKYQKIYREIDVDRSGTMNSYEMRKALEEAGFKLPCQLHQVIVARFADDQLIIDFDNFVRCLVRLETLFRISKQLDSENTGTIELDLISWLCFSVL
# [10] = Luminescence Cell-Based Dose Response HTS to Identify Inhibitors of 5'UTR Stem-Loop Driven Prion Protein mRNA Translation in H4 Neuroglioblastoma Cells. [Related pubchem assays: 1827 (Project Summary), 1813 (Primary HTS)]; format: functional
# H9c2 = test: cells; format: functional, cell-based; details: Rattus norvegicus, H9c2, Myocardium;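 also: confirmatory concentration-response retest of ultra-high-throughput screening hits for modulation of myocardial damage; cell death induced by hydrogen peroxide oxidative stress; compound pretreatment for 60 min then peroxide exposure for 2 h; potency is for protecting the cells against peroxide damage rather than for killing them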
# [11] = luciferase reporter signal suppression in cells – H4 neuroglioma cells, luminescence, dose response (AID 1990); format: functional, cell-based
# [12] = alpha-synuclein stem-loop luciferase translation blockers – H4 neuroglioma cells, luminescence, confirmation (AID 1988); format: functional, cell-based
# [13] = blockers of HIV-1 envelope-mediated cell-cell fusion – cherry-pick, dose response (AID 652057); format: functional, cell-based
# [14] = off-target signal loss in HeLa-CEM21 co-culture – HeLa F-luc CTL cells, cherry-picked, counter-screen for HIV-1 Env fusion inhibitor project, dose response (AID 652040); format: functional, cell-based;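 also: potency for signal decrease marking cytotoxic or nonspecific inhibition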
# [15] = blockers of HIV-1 ZM109 envelope-driven cell-cell fusion – HeLa effector, CEM target cells, luciferase, cherry-pick, dose response (AID 652058); format: functional, cell-based;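 also: luciferase signal from HIV-1 Env mediated cell-cell fusion of effector and target cells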
# [16] = HIV-1 AD8 envelope cell-cell fusion blockers – cherry-pick, dose response (AID 652062); format: functional, cell-based;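 also: luciferase signal from cell-cell fusion driven by HIV-1 clade B AD8 Env; potency is for inhibitors of fusion seen as a drop in luminescence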
# Vero = test: cells; format: functional, cell-based; details: Chlorocebus sabaeus
# Paired box protein Pax-8 = Paired box protein Pax-8 (Homo sapiens, UniProt Q06710); test: PAX8 transcriptional activity inhibition in RMG-I – RMG-I cells, luciferase, cherry-pick, dose response (AID 687027); format: functional, cell-based;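 also: luciferase reporter driven by Pax8 target thyroperoxidase promoter measured by SteadyGlo luminescence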
# Chain of Paired box protein Pax-8 (Q06710 whole entry): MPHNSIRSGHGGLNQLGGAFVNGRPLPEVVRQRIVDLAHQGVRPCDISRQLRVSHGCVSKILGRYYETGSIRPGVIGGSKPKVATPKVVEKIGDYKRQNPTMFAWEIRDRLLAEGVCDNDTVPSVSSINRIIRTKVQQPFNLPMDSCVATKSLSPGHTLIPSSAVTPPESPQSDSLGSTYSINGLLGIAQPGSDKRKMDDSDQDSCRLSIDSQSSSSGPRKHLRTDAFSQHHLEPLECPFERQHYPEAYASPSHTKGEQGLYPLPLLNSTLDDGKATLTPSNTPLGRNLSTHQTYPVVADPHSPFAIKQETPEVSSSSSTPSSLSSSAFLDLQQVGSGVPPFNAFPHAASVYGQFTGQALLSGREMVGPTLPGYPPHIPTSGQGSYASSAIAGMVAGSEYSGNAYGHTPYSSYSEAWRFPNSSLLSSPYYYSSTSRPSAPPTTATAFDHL
compound,measurement,setting,value
Cc1ccc(NC(=O)CCl)cc1S(=O)(=O)N1CCCCCC1,AC50,[1],7.55 µM (active)
same,EC50,Protein RecA,3.67 µM (active)
same,AC50,[2],14.7 µM (active)
same,CC50,[3],6.13 µM (active)
COc1ccc(S(=O)(=O)Nc2ccc3c(c2)CC(=O)N([C@H](C)CO)C[C@@H](C)[C@H](CN(C)Cc2ccc(Cl)c(Cl)c2)O3)cc1,AC50,[4],1.94 µM (active)
O=C(NNC1=Nc2ccccc2SC1)c1ccc(F)cc1,EC50,[5],3.72 µM (active)
same,CC50,[6],> 40 µM (active)
same,EC50,Streptokinase A,> 150 µM (not active)
same,IC50,cells,23.5 µM (active)
same,CC50,[7],> 20 µM (active)
same,EC50,Streptococcus,15.6 µM (active)
COc1ccc(CCn2c(=S)[nH]c3cc(C(=O)NCc4ccco4)ccc3c2=O)cc1OC,AC50,[1],17.7 µM (active)
O=C(OCc1csc(Nc2ccccc2)n1)c1ccc(Cl)cc1,EC50,[5],12.8 µM (active)
same,IC50,[8],> 69.5 µM (inactive)
same,EC50,Streptokinase A,34.2 µM (active)
same,EC50,Streptococcus,> 150 µM (not active)
O=C(CCCCn1c(=O)c2ccccc2n(CC(=O)NC2CCCC2)c1=O)NCc1ccco1,IC50,[9],28.8 µM (not active)
C[C@@H]1CN([C@H](C)CO)C(=O)Cc2cc(NC(=O)Nc3cccc4ccccc34)ccc2O[C@H]1CN(C)Cc1ccc(C(F)(F)F)cc1,AC50,[4],3.46 µM (active)
COc1cc(OC)cc(C(=O)NNC(=O)c2ccccn2)c1,EC50,[10],11.2 µM (active)
same,CC50,[6],10.6 µM (active)
same,IC50,H9c2,> 79 µM (inactive)
same,IC50,cells,9.73 µM (active)
same,CC50,[7],12.6 µM (active)
same,EC50,[11],11.6 µM (active)
same,EC50,[12],> 120 µM (not active)
Cc1ccc2c(c1)nnn2C1CCN(S(=O)(=O)c2ccc(C(=O)N3CC(C)CC(C)C3)cc2)CC1 (centres undefined),IC50,[9],3.74 µM (not active)
C[C@H](CO)N1C[C@H](C)[C@@H](CN(C)Cc2ccc(Oc3ccccc3)cc2)Oc2c(NS(=O)(=O)c3ccc(Cl)cc3)cccc2C1=O,AC50,[4],3.36 µM (active)
O=C1OCCN1C(=O)[C@H]1[C@H](c2ccc([N+](=O)[O-])cc2)C(c2cccc(Cl)c2)=NN1c1ccc(Br)cc1,IC50,[8],> 69.5 µM (inactive)
same,IC50,H9c2,> 79 µM (inactive)
Cc1ccc(S(=O)(=O)Nc2ccc3c(c2)CC(=O)N([C@@H](C)CO)C[C@H](C)[C@@H](CN(C)Cc2ccc(C(=O)Nc4ccccc4N)cc2)O3)cc1,AC50,[4],2.74 µM (active)
Cc1cc(C)n2nc(NCc3cccc(Br)c3)nc2n1,AC50,[13],7.45 µM (active)
same,AC50,[14],7.14 µM (active)
same,AC50,[15],7.3 µM (active)
same,AC50,[16],2.92 µM (active)
O=C(CSc1nnnn1-c1ccc2c(c1)OCCO2)OC1CCCCC1,IC50,[9],10.3 µM (not active)
CCc1ccc(-c2cc3c(=O)n(CC(=O)NCCCN4CCN(CC)CC4)nc(C)n3n2)cc1,IC50,Vero,> 25 µM (active)
C[C@@H]1CN([C@@H](C)CO)C(=O)c2cccc(NC(=O)c3nc4ccccc4s3)c2O[C@@H]1CN(C)Cc1ccc(C(=O)Nc2ccccc2N)cc1,AC50,[4],2.88 µM (active)
COCCN=C(S)NCc1ccc2[nH]c3c(c2c1)CCCC3,IC50,Vero,23.6 µM (active)
COc1ccc(N2C(=O)N3[C@H](c4ccc(Cl)cc4)[C@@H]4C(=O)N(C5CCCCC5)C(=O)[C@@H]4[C@]3(C)C2=O)cc1,AC50,[13],2.73 µM (active)
same,AC50,[14],3.54 µM (active)
same,AC50,[15],3.16 µM (active)
same,AC50,[16],5.1 µM (active)
C[C@@H]1CN([C@H](C)CO)C(=O)Cc2cc(NC(=O)Nc3ccc(F)cc3)ccc2O[C@@H]1CN(C)Cc1ccc(Cl)c(Cl)c1,AC50,[4],4.89 µM (active)
same,AC50,Paired box protein Pax-8,18.4 µM (active)
